Test results reported in US20230293526A1, “METHOD FOR TREATING CANCER WITH A REVERSE TRANSCRIPTASE INHIBITOR” (PrimeFour Therapeutics, Inc., priority 2020, published 2023).
pIC50: −log10 of the molar value.

Key:
human LINE-1 = assay: Human LINE-1 (L1) retrotransposition dual-luciferase reporter assay in HeLa cells; format: cell-based; conditions: Homo sapiens, HeLa, 72 h, read-out: Human LINE-1 IC50 (Human L1 activity inhibition)
Method: Representative compounds were tested for inhibition of retrotransposition activity of human LINE-1 (L1) retrotransposition reporter assay in HeLa cells according to the following procedure.
Human Cervical Adenocarcinoma Cells (HeLa) were cultured in Dulbecco's Modified Eagle's Medium (DMEM) containing 4500 mg/L glucose, L-glutamine, sodium pyruvate and sodium bicarbonate, supplemented with 10% of heat inactivated fetal bovine serum (FBS). Cells were grown at 37° C. in an atmosphere of 5% CO2. The dual luciferase-encoding plasmid pYX017 was provided by Prof Wenfeng An (Xie, et al., 2011, Nucleic Acids Res).
The reporter assay was performed in 96-well white, optical bottom plates (Thermo Fisher, 165306). 24 hours prior to transfection, HeLa cells were seeded in a density of 2,500 cells per well, in 50 μL of DMEM, 10% FBS media volume. Cells were incubated at 37° C. in an atmosphere of 5% CO2. Seeding was optimized to achieve approximately 30% cell confluency on the day of transfection. A transfection mix was prepared by combining transfection reagent FuGENE® HD (Promega, E2311) and plasmid DNA (100 ng per well) in a 3:1 ratio, in OpiMEM media (Thermo Fisher, 31985062). Next, 5 μL of the transfection mix was combined with 20 μL of DMEM, 10% FBS media, and 25 μL of this mix was added into each well of an assay plate. In each assay plate one column remained untransfected to serve as a blank luminescence signal.
Serial dilution of test compounds was performed in DMSO and transferred to medium. Next, 25 μL of media-diluted compounds series were transferred to an assay plate containing cells and transfection media. The final concentration of DMSO in treated wells was 0.2%. Serial dilutions of compounds were added to an assay plate immediately after transfection. Compounds were tested in triplicates. The assay plate was then incubated with transfection reagent and compounds at 37° C. in an atmosphere of 5% CO2 for 72 hours.
Luciferase reporter activity was quantified with the Dual-Luciferase® Reporter Assay System (Promega) following the manufacturer's manual, with a passive lysis buffer volume increased to 30 μL and lysis incubation time increased to 20 min at room temperature with gentle shaking, to ensure complete cell lysis. Luminescence was measured using a SpectraMax i3×Multi-Mode Microplate Reader, with integration times of 100 ms and 10 ms applied to measure FLuc and RLuc signals, respectively. Relative LNE-1 activity was calculated as Firefly signal/Renilla signal*10,000. In order to determine IC50 values for each compound, dose response data were fit to a logistic using non-linear regression.

cancer cell lines = assay: Cancer cell proliferation activity of representative nucleosides, CellTiterGlo 72 h (Example 7, Tables 8 and 9); format: cell-based
Procedure, shortened: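 Cancer cell lines seeded and incubated at 37° C overnight, then exposed to nucleosides (final DMSO 0.1%) for 72 h at 37° C with 5% or 10% CO2. Viability read by CellTiterGlo luminescence and normalized to 0.1% DMSO (100%) and 10 μM staurosporine (0%) controls.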

Measured: pIC50

Nc1nc(=O)n([C@@H]2C=C[C@H](CO)O2)cc1F [Elvucitabine, reference compound]
5.27: cancer cell lines; Homo sapiens, MDA-MB-231, 72 h, MDAMB231, 72 h (Table 9)
5.07: cancer cell lines; Homo sapiens, JIMT-1, 72 h, JIMT1, 72 h (Table 9)
5.33: cancer cell lines; Homo sapiens, NCI-H292, 72 h, NCIH292, 72 h (Table 9)
6.39: cancer cell lines; Homo sapiens, A204, 72 h, A204, 72 h (Table 9)
5.47: cancer cell lines; Homo sapiens, HL-60, 72 h, HL-60, 72 h (Table 9)
4.73: cancer cell lines; Homo sapiens, Kasumi 1, 72 h, KASUMI-1, 72 h (Table 9) | cancer cell lines; Homo sapiens, U-87 MG, 72 h, U87MG, 72 h (Table 9)
5.71: cancer cell lines; Homo sapiens, MHH-ES-1, 72 h, MHHES1, 72 h (Table 9) | cancer cell lines; Homo sapiens, Ramos, 72 h, 72 h (Table 9)
7.04: human LINE-1
5.34: cancer cell lines; NCI-H358M, 72 h, NCIH358M, 72 h (Table 9)
5.31: cancer cell lines; Homo sapiens, MINO, 72 h, 72 h (Table 9)
5.85: cancer cell lines; Homo sapiens, DU-145, 72 h, DU145, 72 h (Table 9)
5.61: cancer cell lines; Homo sapiens, ASPC1, 72 h, ASPC1, 72 h (Table 9) | cancer cell lines; Homo sapiens, WSU-NHL, 72 h, 72 h (Table 9)
< 4.30: cancer cell lines; 72 h, 5637, 72 h (Table 9) | cancer cell lines; 72 h, CLS439, 72 h (Table 9) | cancer cell lines; 72 h, HS729, 72 h (Table 9) | cancer cell lines; 72 h, J82, 72 h (Table 9) | cancer cell lines; 72 h, JAR, 72 h (Table 9) | cancer cell lines; 72 h, MT3, 72 h (Table 9) | cancer cell lines; 72 h, PC3, 72 h (Table 9) | cancer cell lines; 72 h, RD, 72 h (Table 9) | cancer cell lines; 72 h, T24, 72 h (Table 9) | cancer cell lines; Homo sapiens, 22Rv1, 72 h, 22RV1, 72 h (Table 9) | cancer cell lines; Homo sapiens, 786-0, 72 h, 786O, 72 h (Table 9) | cancer cell lines; Homo sapiens, A549, 72 h, A549, 72 h (Table 9) | cancer cell lines; Homo sapiens, A673, 72 h, A673, 72 h (Table 9) | cancer cell lines; Homo sapiens, A2780, 72 h, A2780, 72 h (Table 9) | cancer cell lines; Homo sapiens, A-375, 72 h, A375, 72 h (Table 9) | cancer cell lines; Homo sapiens, BT-20, 72 h, BT20, 72 h (Table 9) | cancer cell lines; Homo sapiens, BXPC-3, 72 h, BXPC3, 72 h (Table 9) | cancer cell lines; Homo sapiens, C-33-A, 72 h, C33A, 72 h (Table 9) | cancer cell lines; Homo sapiens, COLO 205, 72 h, COLO205, 72 h (Table 9) | cancer cell lines; Homo sapiens, COLO-678, 72 h, COLO678, 72 h (Table 9) | cancer cell lines; Homo sapiens, Ca-Ski, 72 h, CASKI, 72 h (Table 9) | cancer cell lines; Homo sapiens, Caco-2, 72 h, CACO2, 72 h (Table 9) | cancer cell lines; Homo sapiens, Calu-6, 72 h, CALU6, 72 h (Table 9) | cancer cell lines; Homo sapiens, DLD-1, 72 h, DLD1, 72 h (Table 9) | cancer cell lines; Homo sapiens, EFO-21, 72 h, EFO21, 72 h (Table 9) | cancer cell lines; Homo sapiens, EJ-28, 72 h, EJ28, 72 h (Table 9) | cancer cell lines; Homo sapiens, HCT-15, 72 h, HCT15, 72 h (Table 9) | cancer cell lines; Homo sapiens, HCT-116, 72 h, HCT116, 72 h (Table 9) | cancer cell lines; Homo sapiens, HEK293, 72 h, HEK293, 72 h (Table 9) | cancer cell lines; Homo sapiens, HT-29, 72 h, HT29, 72 h (Table 9) | cancer cell lines; Homo sapiens, HT-1080, 72 h, HT1080, 72 h (Table 9) | cancer cell lines; Homo sapiens, HeLa, 72 h, 72 h (Table 9) | cancer cell lines; Homo sapiens, Hs-578T, 72 h, HS578T, 72 h (Table 9) | cancer cell lines; Homo sapiens, IGROV-1, 72 h, IGROV1, 72 h (Table 9) | cancer cell lines; Homo sapiens, IMR-90, 72 h, IMR90, 72 h (Table 9) | cancer cell lines; Homo sapiens, JEG-3, 72 h, JEG3, 72 h (Table 9) | cancer cell lines; Homo sapiens, K562, 72 h, K-562, 72 h (Table 9) | cancer cell lines; Homo sapiens, L-363, 72 h, L-363, 72 h (Table 9) | cancer cell lines; Homo sapiens, LoVo, 72 h, 72 h (Table 9) | cancer cell lines; Homo sapiens, MCF7, 72 h, MCF7, 72 h (Table 9) | cancer cell lines; Homo sapiens, MDA-MB-435, 72 h, MDAMB435, 72 h (Table 9) | cancer cell lines; Homo sapiens, MDA-MB-436, 72 h, MDAMB436, 72 h (Table 9) | cancer cell lines; Homo sapiens, MDA-MB-468, 72 h, MDAMB468, 72 h (Table 9) | cancer cell lines; Homo sapiens, MG-63, 72 h, MG63, 72 h (Table 9) | cancer cell lines; Homo sapiens, MIA PaCa-2, 72 h, MIAPACA2, 72 h (Table 9) | cancer cell lines; Homo sapiens, MV4-11, 72 h, MV4-11, 72 h (Table 9) | cancer cell lines; Homo sapiens, NCI-H23, 72 h, NCI-H23, 72 h (Table 9) | cancer cell lines; Homo sapiens, NCI-H82, 72 h, NCIH82, 72 h (Table 9) | cancer cell lines; Homo sapiens, NCI-H460, 72 h, NCIH460, 72 h (Table 9) | cancer cell lines; Homo sapiens, OVCAR-3, 72 h, OVCAR3, 72 h (Table 9) | cancer cell lines; Homo sapiens, OVCAR-4, 72 h, OVCAR4, 72 h (Table 9) | cancer cell lines; Homo sapiens, PANC-1, 72 h, PANC1, 72 h (Table 9) | cancer cell lines; Homo sapiens, PLC-PRF-5, 72 h, PLCPRF5, 72 h (Table 9) | cancer cell lines; Homo sapiens, Panc1005, 72 h, PANC1005, 72 h (Table 9) | cancer cell lines; Homo sapiens, SAOS-2, 72 h, SAOS2, 72 h (Table 9) | cancer cell lines; Homo sapiens, SF-268, 72 h, SF268, 72 h (Table 9) | cancer cell lines; Homo sapiens, SF-295, 72 h, SF295, 72 h (Table 9) | cancer cell lines; Homo sapiens, SK-HEP1, 72 h, SKHEP1, 72 h (Table 9) | cancer cell lines; Homo sapiens, SK-LMS-1, 72 h, SKLMS1, 72 h (Table 9) | cancer cell lines; Homo sapiens, SK-MEL-5, 72 h, SKMEL5, 72 h (Table 9) | cancer cell lines; Homo sapiens, SK-MEL-28, 72 h, SKMEL28, 72 h (Table 9) | cancer cell lines; Homo sapiens, SK-N-AS, 72 h, SKNAS, 72 h (Table 9) | cancer cell lines; Homo sapiens, SK-OV-3, 72 h, SKOV3, 72 h (Table 9) | cancer cell lines; Homo sapiens, SNB-75, 72 h, SNB75, 72 h (Table 9) | cancer cell lines; Homo sapiens, SU-DHL10, 72 h, SU-DHL-10, 72 h (Table 9) | cancer cell lines; Homo sapiens, SW-620, 72 h, SW620, 72 h (Table 9) | cancer cell lines; Homo sapiens, TE-671, 72 h, TE671, 72 h (Table 9) | cancer cell lines; Homo sapiens, U2OS, 72 h, 72 h (Table 9) | cancer cell lines; Homo sapiens, UMUC3, 72 h, UMUC3, 72 h (Table 9) | cancer cell lines; PBMC, 72 h, 72 h (Table 9) | cancer cell lines; RD-ES, 72 h, RDES, 72 h (Table 9)
4.77: cancer cell lines; Homo sapiens, A-431, 72 h, A431, 72 h (Table 9)
5.16: cancer cell lines; Homo sapiens, SK-N-SH, 72 h, SKNSH, 72 h (Table 9)
5.87: cancer cell lines; Homo sapiens, Granta-519, 72 h, GRANTA-519, 72 h (Table 9)
5.69: cancer cell lines; Homo sapiens, THP-1, 72 h, THP-1, 72 h (Table 9)
5.53: cancer cell lines; Homo sapiens, CAKI-1, 72 h, CAKI1, 72 h (Table 9)
5.73: cancer cell lines; Homo sapiens, ACHN, 72 h, 72 h (Table 9)
4.95: cancer cell lines; Homo sapiens, UO-31, 72 h, UO31, 72 h (Table 9)
5.46: cancer cell lines; Homo sapiens, SK-BR-3, 72 h, SKBR3, 72 h (Table 9)
5.38: cancer cell lines; Homo sapiens, SU-DHL-6, 72 h, SU-DHL-6, 72 h (Table 9)
5.20: cancer cell lines; Homo sapiens, HepG2, 72 h, HEPG2, 72 h (Table 9)
